In publication PMC4560900, “High-throughput screening against thioredoxin glutathione reductase identifies novel inhibitors with potential therapeutic value for schistosomiasis” (Infectious Diseases of Poverty, 2015):

Legend:
[1] = system: worms; parameters: method as in PMID 7016122; conditions: previous studies; cited from earlier work
[2] = target: T1, Thioredoxin glutathione reductase from S. mansoni (SmTGR) (Schistosoma mansoni, UniProt Q962Y6); experiment: Endpoint SmTGR fluorescence (ThioGlo) assay; format: biochemical
T1 construct: made in house
T1 sequence (Q962Y6 1-598): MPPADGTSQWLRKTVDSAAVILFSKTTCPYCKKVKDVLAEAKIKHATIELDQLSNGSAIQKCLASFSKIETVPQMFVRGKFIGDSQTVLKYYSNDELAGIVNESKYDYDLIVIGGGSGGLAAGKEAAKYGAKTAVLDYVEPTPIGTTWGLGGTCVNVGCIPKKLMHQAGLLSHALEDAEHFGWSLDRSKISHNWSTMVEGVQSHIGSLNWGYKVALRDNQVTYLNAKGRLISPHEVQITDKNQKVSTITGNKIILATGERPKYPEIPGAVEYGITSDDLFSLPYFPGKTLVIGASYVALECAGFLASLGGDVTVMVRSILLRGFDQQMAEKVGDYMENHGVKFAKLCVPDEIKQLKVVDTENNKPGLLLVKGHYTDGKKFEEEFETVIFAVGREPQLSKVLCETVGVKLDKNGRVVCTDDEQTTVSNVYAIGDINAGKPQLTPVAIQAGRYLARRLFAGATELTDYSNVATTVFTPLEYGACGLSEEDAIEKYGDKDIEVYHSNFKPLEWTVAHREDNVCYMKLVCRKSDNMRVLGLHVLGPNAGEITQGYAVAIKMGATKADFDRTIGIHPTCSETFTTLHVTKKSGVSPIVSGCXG
Experimental: SmTGR protein (1.58 μg/ml) was loaded into each well of black 384-well plates (PerkinElmer, Boston, MA, USA) containing 19 μl of assay buffer I (90 mM Tris-HCl, 10 mM EDTA, pH 7.5, 100 μM NADPH, and 0.48 mg/ml BSA), followed by an addition of 1 μl positive control or test compounds. The plates were sealed and incubated for 50 min at room temperature. […] Following a 1 h incubation, the product was reacted with 30 μl ThioGlo® 1 reagent for 20–30 min, and the fluorescence signal was monitored at an excitation wavelength of 380 nm and an emission wavelength of 515 nm on the EnVision plate reader (PerkinElmer).
An HTS effort was carried out against the compound library described above. […]
Data were analyzed using GraphPad Prism® software (GraphPad, San Diego, CA, USA). […]
Recombinant SmTGR was expressed and purified as previously described. An earlier assay of the coupled activities of SmTGR and peroxiredoxin-2 [13] was adapted to study the activity of SmTGR alone, using the following principle: SmTGR converts NADPH and GSSG to NADP^+ and reduced glutathione (GSH), and GSH production can be detected with ThioGlo®, a maleimide derivative of the naphthopyranone fluorophore which fluoresces upon reacting with free thiol groups such as those present in GSH. […] After ten additional minutes, samples were excited at […] and read for fluorescence at 515 nM.

[3] = system: SmTGR; parameters: method as in PMID 17579510; conditions: read-out: IC50 documented in the literature; cited from earlier work

SMILES	Worm-killing activity concentration [1] [µM]	IC50 [2] [µM]	inhibition at 30 µM ([2]; read-out: Inhibition of SmTGR) [%]	IC50 [3] [µM]
O=C(C1CCCCC1)N1CC(=O)N2CCc3ccccc3C2C1 (stereo not shown) [PZQ, praziquantel]	0.3 to 1			
O=C1C=CC(=O)c2c(O)ccc(O)c21 [naphthazarin, Naphthazarin]		1.42 ± 0.08	100	10
